Measurements as given in patent publication US8410109B2, “Pharmaceutical compositions for the prevention and treatment of complex diseases and their delivery by insertable medical devices” (Resverlogix Corp., priority 2005, dated 2013).

Experiments:
[1] = following oral administration (Gugler et al. 1975); cited from earlier work
[2] = system: MCP-1; assay: MCP-1 ELISA on culture media of TNF-α stimulated HUVECs; format: cell-based; conditions: Homo sapiens, HUVEC, approx. 16 hours
Method: (§1) Compounds were dissolved in DMSO, aliquoted, and stored at −20° C. Cultured human vascular endothelial cells (HUVECs) were seeded in 96-well plates in complete EGM-2 media (˜100 μL/well); cells were plated at ˜2-3×10^5/mL, and were from passage 8 to 12. Cells were incubated overnight. On the following day cells are stimulated with TNF-α (˜1 ng/mL) in the presence or absence of compounds dissolved in DMSO. Triplicate wells were used for each test. To establish a dose curve and an IC50, multiple concentrations in 2- to 5-fold increments were used. Cells were exposed to TNF-α and compounds for approximately 16 hours. The next day, cells were visually examined via light microscopy to score for visual signs of toxicity. Cell culture media was analyzed using an MCP-1 ELISA. Cells were refed (−100 μL/well) with 20% CellTiter 96. Aqueous One Cell Proliferation Solution (Promega), 80% EGM-2 medium. Media optical density (at 490 nm) was determined after 1 hour. Plates were aspirated and cell lysates were prepared and these lysates were tested using a VCAM-1 ELISA.
(§2) In Table 2, a positive result (+) was defined as at least 50% inhibition of the protein levels MCP-1 or VCAM-1, as determined by the ELISA.

[3] = system: Human coronary artery smooth muscle cells (CASMCs); assay: Smooth muscle cell proliferation protocol; format: cell-based; conditions: 72 hours, read-out: % Inhibition of SMC Proliferation
Method: Compounds were dissolved in DMSO, aliquoted, and stored at −20° C. Human coronary artery smooth muscle cells (CASMCs) were plated in 96-well plates and were grown in SmBM-2 media. After 1-2 hours, media was aspirated and replaced with serum-free ME/F12 media, except the controls. Cells were incubated for a further 48 hours. Compounds were diluted in DME/F12 containing 10% FBS. Media was aspirated from the plates and compounds in DME/F12 containing 10% FBS. Six wells were used per condition and duplicate plates were used. Cells were incubated for a further 72 hours. Media was aspirated from one set of plates; those cells were refed (˜100 μL/well) with 20% CellTiter 96 Aqueous One Cell Proliferation Solution (Promega), 80% EGM-2 medium. Media optical density (at 490 nm) was determined after 3-4 hours. In the second set of plates, serum-free DME/F12 media (20 μL) was added to each well. Part of the supernatant (50 μL) was removed and placed in an ELISA plate and was stored temporarily at 4° C. The remaining media and cells in the second set of plates were freeze-thawed for four cycles. The lysates and supernatants were mixed and centrifuged. Part of the supernatant (50 μL) was removed and placed in an ELISA plate. The Promega Cytotox assay was performed on the ELISA plates. The ratio of supernatant OD to supernatant+cell lysate OD was determined.
In Table 2, a positive result (+) was defined as at least 40% inhibition of the proliferation of SMC, as determined by the assay.

[4] = system: VCAM-1; assay: VCAM-1 ELISA on lysates of TNF-α stimulated HUVECs; format: cell-based; conditions: Homo sapiens, HUVEC, approx. 16 hours
Method: as §1, §2

| melting point [°C] | Compound | intestinal absorption [1] | inhibition at 50 µM [2] [%] | inhibition at 50 µM [3] [%] | inhibition at 50 µM [4] [%] | inhibition at 10 µM ([2]; 10 uM) [%] | inhibition at 10 µM ([3]; 10 uM) [%] | inhibition at 10 µM ([4]; 10 uM) [%] |
| --- | --- | --- | --- | --- | --- | --- | --- | --- |
|  | O=c1c(O)c(-c2ccc(O)c(O)c2)oc2cc(O)cc(O)c12 [quercetin] | less than 1% |  |  |  |  |  |  |
| 347.6 to 348.2 | O=c1[nH]c2ccc(-c3cc(=O)c4ccccc4o3)cc2o1 [EXAMPLE 36, 6-(4-oxo-4H-chromen-2-yl)benzo[d]oxazol-2(3H)-one] |  | < 50 | ≥ 40 | ≥ 50 |  |  |  |
| 293.1 to 293.2 | O=c1cc(-c2ccc3[nH]ncc3c2)oc2ncc(CN3CCOCC3)cc12 [EXAMPLE 47, 2-(1H-indazol-5-yl)-6-(morpholinomethyl)-4H-pyrano[2,3-b]pyridin-4-one] |  | < 50 | ≥ 40 | < 50 |  |  |  |
| 289 to 291 | COc1cccc2c(=O)[nH]c(-c3ccc(O)c(F)c3)cc12 [EXAMPLE 18, 3-(3-Fluoro-4-hydroxyphenyl)-5-methoxyisoquinolin-1(2H)-one] |  | ≥ 50 | ≥ 40 | ≥ 50 |  |  |  |
| 163.2 to 165.5 | COc1cc(OC)c2c(N)nc(-c3cc(C)c(O)c(C)c3)cc2n1 [EXAMPLE 45, 4-(5-amino-2,4-dimethoxy-1,6-naphthyridin-7-yl)-2,6-dimethylphenol] |  | < 50 | ≥ 40 | ≥ 50 |  |  |  |
| 269 to 270 | COc1ccc(-c2cc(=O)c3cccnc3o2)cc1 [EXAMPLE 9, 2-(4-Methoxyphenyl)-4H-pyrano[2,3-b]pyridine-4-one] |  | < 50 | ≥ 40 | < 50 |  |  |  |
| 300 to 302 | Cc1cc(-c2cc(=O)c3cccnc3o2)ccc1O [EXAMPLE 5, 2-(4-Hydroxy-3-methylphenyl)-4H-pyrano[2,3-b]pyridine-4-one] |  |  |  |  | < 50 | < 40 | < 50 |
| 267 to 272 | O=c1cc(-c2ccc(O)c(Br)c2)oc2ncccc12 [EXAMPLE 32, 2-(3-Bromo-4-hydroxyphenyl)-4H-pyrano[2,3-b]pyridin-4-one] |  | < 50 | ≥ 40 | ≥ 50 |  |  |  |
| 253 to 255 | COc1cc(-c2cc(=O)c3cccnc3o2)ccc1O [EXAMPLE 8, 2-(4-Hydroxy-3-methoxyphenyl)-4H-pyrano[2,3-b]pyridine-4-one] |  | < 50 | < 40 | ≥ 50 |  |  |  |
| 295 to 297 | Cc1cc(-c2cc(=O)c3cccnc3o2)cc(C)c1O [EXAMPLE 24, 2-(4-hydroxy-3,5-dimethylphenyl)-4H-pyrano[2,3-b]pyridin-4-one] |  | ≥ 50 | ≥ 40 | ≥ 50 |  |  |  |
| 273.5 to 275 | O=c1cc(-c2ccc(O)c(-c3cccs3)c2)oc2ncccc12 [EXAMPLE 28, 2-(4-hydroxy-3-(thiophen-2-yl)phenyl)-4H-pyrano[2,3-b]pyridin-one] |  | < 50 | < 40 | ≥ 50 |  |  |  |
| 280 | Cc1cc(-c2cc(=O)c3cccnc3o2)cc(C)c1OCC(=O)O [EXAMPLE 29, 2-(2,6-dimethyl-4-(4-oxo-4H-pyrano[2,3-b]pyridin-2-yl)phenoxy)acetic Acid] |  | < 50 | ≥ 40 | < 50 |  |  |  |
| 239 to 241 | O=c1[nH]c(-c2ccc(O)cc2)cc2ccccc12 [EXAMPLE 21, 3-(4-Hydroxyphenyl)-2H-isoquinolin-1-one] |  | ≥ 50 | ≥ 40 | ≥ 50 |  |  |  |
| 267 to 268 | O=c1cc(-c2ccc(O)c(F)c2)oc2ncccc12 [EXAMPLE 4, 2-(3-Fluoro-4-hydroxyphenyl)pyrano[2,3-b]pyridine-4-one] |  | < 50 | < 40 | ≥ 50 |  |  |  |
